SMILES strings stand for the structures. Marks after values point to notes of the source that are not given here.

System in the first data set: not listed separately
The experiment in a line: Measurement of LogP values by HPLC on reversed phase columns (EEC directive 79/831 Annex V.A8). The data set is classed as physicochemical.
Details: not given
The procedure: Measurement of Log P values was performed as outlined above.
As to `N#Cc1cncn1CC(O)(Cc1ccncc1Br)C1(Cl)CC1` (racemic) [Example I-46], the LogP was 1.94^[a].
Take `N#Cc1cncn1CC(O)(Cc1ccccc1F)C1(Cl)CC1` (single isomer, unassigned) [Example I-132]: the LogP is 2.59^[a].
Turning to `OC(Cc1ccc(Cl)cc1F)(Cn1cncc1Cl)C1(Cl)CC1` (single isomer, unassigned) [Example I-113], the LogP is 2.54^[a].
In the case of `O=C(Cc1ccccc1F)c1cncn1CC(O)(Cc1ccccc1F)C1(Cl)CC1` (racemic) [Example I-134], the LogP was 3.60^[a].

Still in this data set, the particulars now being: method [a]: LC-UV, acidic range, 0.1% formic acid in water and acetonitrile as eluent; Table 1.
As a reminder, the chromatographic logP is a lipophilicity value derived from retention on a column. High values mean higher lipophilicity, low ones lower lipophilicity. `C=CCOC(Cc1ccc(Cl)cc1F)(Cn1cncc1Cl)C1(Cl)CC1` (centres unmarked) [Example I-123] returned a chromatographic logP of 3.31.
Regarding `OC(Cc1cc(Cl)nc(Cl)c1)(Cn1cncc1Cl)C1(Cl)CC1` (centres unmarked) [Example I-74], the chromatographic logP worked out at 2.23.
Consider `N#Cc1cncn1CC(O)(Cc1ccncc1Cl)C1(Cl)CC1` (centres unmarked) [Example I-57], for which the chromatographic logP was 1.88.
Consider `N#Cc1cncn1CC(O)(Cc1cc(Br)ncc1Br)C1(Cl)CC1` (centres unmarked) [Example I-47], for which the chromatographic logP is 2.73.
As to `N#Cc1cncn1CC(O)(C(F)c1ccccc1Cl)C1(Cl)CC1` (centres unmarked) [Example I-24], the chromatographic logP was found to be 2.82.
For `N#Cc1cncn1CC(O)(Cc1ccc(-c2ccccc2)cc1)C1(Cl)CC1` (centres unmarked) [Example I-63], the chromatographic logP was found to be 3.68.
Turning to `CCOC(=O)c1cncn1CC(O)(Cc1ccccc1F)C1(Cl)CC1` (centres unmarked) [Example I-135], the chromatographic logP is 2.73.
For `CC(C)(C)CC(O)(Cc1ccc(Cl)cc1)Cn1cncc1C#N` (centres unmarked) [Example I-86], the chromatographic logP was 3.37.
Regarding `N#Cc1cncn1CC(O)(Cc1ccc(F)c(F)c1F)CC1CC1` (centres unmarked) [Example I-106], the chromatographic logP worked out at 2.73.
As to `OC(Cn1cncc1Cl)(C(F)c1ccccc1F)C1(Cl)CC1` (centres unmarked) [Example I-28], the chromatographic logP was found to be 2.01.
Compound `COc1cncn1CC(O)(Cc1ccccc1F)C1(Cl)CC1` (centres unmarked) [Example I-35] gave a chromatographic logP of 1.67.
As to `Cc1cncn1CC(O)(Cc1cccnc1Cl)C1(Cl)CC1` (centres unmarked) [Example I-10], the chromatographic logP worked out at 1.22.
`CC(C)(C)CC(O)(Cc1ccccc1Cl)Cn1cncc1C#N` (centres unmarked) [Example I-83] showed a chromatographic logP of 3.55.
`OC(Cc1ccnc(Cl)c1Cl)(Cn1cncc1Cl)C1(Cl)CC1` (centres unmarked) [Example I-67] yielded a chromatographic logP of 2.08.
In the case of `Nc1cncn1CC(O)(Cc1ccccc1Cl)C1(Cl)CC1` (centres unmarked) [Example I-78], the chromatographic logP came to 1.5.
As to `N#Cc1cncn1CC(O)(Cc1ccncc1F)C1(Cl)CC1` (centres unmarked) [Example I-163], the chromatographic logP amounted to 1.62.
With `Cc1ccc(CC(O)(Cn2cncc2Cl)C2(Cl)CC2)c(C)c1` (centres unmarked) [Example I-68], the chromatographic logP was determined as 2.69.
On the same count and under the same terms, the result for `CCOC(Cc1ccc(Cl)cc1F)(Cn1cncc1Cl)C1(Cl)CC1` (centres unmarked) [Example I-122] reads 3.1; that for `N#Cc1cncn1CC(O)(Cc1ccccc1F)CC1CC1` (centres unmarked) [Example I-141], 2.45.
`N#Cc1cncn1CC(O)(Cc1ccc(F)c(F)c1F)C1(F)CC1` (centres unmarked) [Example I-93] returned a chromatographic logP of 2.52.

The subject of a further data set is Septoria tritici. The experiment in a line: In vivo preventive test on Septoria tritici (leaf spot on wheat), Examples E, Q3 and R5. As to conditions: Zymoseptoria tritici, 576 h, 500 ppm of active ingredient; wheat, preventive spray, evaluated 24 days after inoculation; read-out: efficacy.
Turning to `C=CCOC(Cc1ccc(Cl)cc1F)(Cn1cncc1Cl)C1(Cl)CC1` (centres unmarked) [Example I-123], the pest or weed control at 500 ppm fell in the range of 90 to 100%.
Consider `OC(Cc1cc(Cl)nc(Cl)c1)(Cn1cncc1Cl)C1(Cl)CC1` (centres unmarked) [Example I-74], for which the pest or weed control at 500 ppm was in the range of 90 to 100%.
As for `N#Cc1cncn1CC(O)(Cc1ccncc1Cl)C1(Cl)CC1` (centres unmarked) [Example I-57], the pest or weed control at 500 ppm is 90 to 100%.
Regarding `N#Cc1cncn1CC(O)(C(F)c1ccccc1Cl)C1(Cl)CC1` (centres unmarked) [Example I-24], the pest or weed control at 500 ppm was 90 to 100%.
In the case of `N#Cc1cncn1CC(O)(Cc1ccc(F)c(F)c1F)CC1CC1` (centres unmarked) [Example I-106], the pest or weed control at 500 ppm lay in the range of 90 to 100%.
Regarding `OC(Cn1cncc1Cl)(C(F)c1ccccc1F)C1(Cl)CC1` (centres unmarked) [Example I-28], the pest or weed control at 500 ppm was 80 to 89%.
In the case of `COc1cncn1CC(O)(Cc1ccccc1F)C1(Cl)CC1` (centres unmarked) [Example I-35], the pest or weed control at 500 ppm is 90 to 100%.
In the case of `Nc1cncn1CC(O)(Cc1ccccc1Cl)C1(Cl)CC1` (centres unmarked) [Example I-78], the pest or weed control at 500 ppm is 80 to 89%.
On the same count and under the same terms, the result for `CCOC(Cc1ccc(Cl)cc1F)(Cn1cncc1Cl)C1(Cl)CC1` (centres unmarked) [Example I-122] reads 90 to 100%; that for `N#Cc1cncn1CC(O)(Cc1ccccc1F)CC1CC1` (centres unmarked) [Example I-141], 90 to 100%.

The next data set deals with Puccinia recondita. The experiment in a line: In vivo preventive test on Puccinia recondita (brown rust on wheat), Examples C and R3. As to conditions: Puccinia recondita, 264 h; 500 ppm of active ingredient; wheat, preventive spray, evaluated 11 days after inoculation; read-out: efficacy.
In the case of `C=CCOC(Cc1ccc(Cl)cc1F)(Cn1cncc1Cl)C1(Cl)CC1` (centres unmarked) [Example I-123], the pest or weed control at 500 ppm lay in the range of 80 to 89%.
Turning to `N#Cc1cncn1CC(O)(Cc1ccncc1Cl)C1(Cl)CC1` (centres unmarked) [Example I-57], the pest or weed control at 500 ppm lay within 90 to 100%.
For the compound `N#Cc1cncn1CC(O)(Cc1cc(Br)ncc1Br)C1(Cl)CC1` (centres unmarked) [Example I-47], the pest or weed control at 500 ppm fell in the range of 80 to 89%.
Consider `N#Cc1cncn1CC(O)(C(F)c1ccccc1Cl)C1(Cl)CC1` (centres unmarked) [Example I-24], for which the pest or weed control at 500 ppm fell in the range of 80 to 89%.
For the compound `N#Cc1cncn1CC(O)(Cc1ccc(F)c(F)c1F)CC1CC1` (centres unmarked) [Example I-106], the pest or weed control at 500 ppm fell in the range of 80 to 89%.
Consider `OC(Cn1cncc1Cl)(C(F)c1ccccc1F)C1(Cl)CC1` (centres unmarked) [Example I-28], for which the pest or weed control at 500 ppm was 80 to 89%.
On to `Cc1cncn1CC(O)(Cc1cccnc1Cl)C1(Cl)CC1` (centres unmarked) [Example I-10], for which the pest or weed control at 500 ppm was 80 to 89%.
For `OC(Cc1ccnc(Cl)c1Cl)(Cn1cncc1Cl)C1(Cl)CC1` (centres unmarked) [Example I-67], the pest or weed control at 500 ppm lay in the range of 80 to 89%.
Regarding `Cc1ccc(CC(O)(Cn2cncc2Cl)C2(Cl)CC2)c(C)c1` (centres unmarked) [Example I-68], the pest or weed control at 500 ppm is 70 to 79%.
In the case of `CCOC(Cc1ccc(Cl)cc1F)(Cn1cncc1Cl)C1(Cl)CC1` (centres unmarked) [Example I-122], the pest or weed control at 500 ppm was in the range of 80 to 89%.
The same measure, in the same setting: the result for `N#Cc1cncn1CC(O)(Cc1ccccc1F)CC1CC1` (centres unmarked) [Example I-141] reads 90 to 100%.

The subject of a further data set is Sphaerotheca fuliginea. Description: In vivo preventive test on Sphaerotheca fuliginea (powdery mildew on cucurbits), Examples F and R6. The following applies: Podosphaera fuliginea, 360 h; 500 ppm of active ingredient; gherkin, preventive spray, evaluated 15 days after inoculation; read-out: efficacy.
With `C=CCOC(Cc1ccc(Cl)cc1F)(Cn1cncc1Cl)C1(Cl)CC1` (centres unmarked) [Example I-123], the pest or weed control at 500 ppm lay within 90 to 100%.
Turning to `OC(Cc1cc(Cl)nc(Cl)c1)(Cn1cncc1Cl)C1(Cl)CC1` (centres unmarked) [Example I-74], the pest or weed control at 500 ppm lay in the range of 90 to 100%.
Same read-out and setting: the same measure for `N#Cc1cncn1CC(O)(Cc1ccncc1Cl)C1(Cl)CC1` (centres unmarked) [Example I-57]: 90 to 100%.
With `N#Cc1cncn1CC(O)(Cc1cc(Br)ncc1Br)C1(Cl)CC1` (centres unmarked) [Example I-47], the pest or weed control at 500 ppm was 90 to 100%.
As for `N#Cc1cncn1CC(O)(C(F)c1ccccc1Cl)C1(Cl)CC1` (centres unmarked) [Example I-24], the pest or weed control at 500 ppm lay within 90 to 100%.
For the compound `N#Cc1cncn1CC(O)(Cc1ccc(F)c(F)c1F)CC1CC1` (centres unmarked) [Example I-106], the pest or weed control at 500 ppm is 90 to 100%.
On the same count and under the same terms, the same measure for `OC(Cn1cncc1Cl)(C(F)c1ccccc1F)C1(Cl)CC1` (centres unmarked) [Example I-28]: 90 to 100%; for `OC(Cc1ccnc(Cl)c1Cl)(Cn1cncc1Cl)C1(Cl)CC1` (centres unmarked) [Example I-67]: 90 to 100%; for `Nc1cncn1CC(O)(Cc1ccccc1Cl)C1(Cl)CC1` (centres unmarked) [Example I-78]: 80 to 89%.
The same measure, in the same setting: the same measure for `CCOC(Cc1ccc(Cl)cc1F)(Cn1cncc1Cl)C1(Cl)CC1` (centres unmarked) [Example I-122]: 90 to 100%; for `N#Cc1cncn1CC(O)(Cc1ccccc1F)CC1CC1` (centres unmarked) [Example I-141]: 90 to 100%.

The subject of another data set is Uromyces appendiculatus. Description: In vivo preventive test on Uromyces appendiculatus (bean rust), Examples G and R7. As to conditions: 264 h, 500 ppm of active ingredient, bean, preventive spray, evaluated 11 days after inoculation, read-out: efficacy.
As for `C=CCOC(Cc1ccc(Cl)cc1F)(Cn1cncc1Cl)C1(Cl)CC1` (centres unmarked) [Example I-123], the pest or weed control at 500 ppm lay within 80 to 89%.
For `OC(Cc1cc(Cl)nc(Cl)c1)(Cn1cncc1Cl)C1(Cl)CC1` (centres unmarked) [Example I-74], the pest or weed control at 500 ppm lay within 90 to 100%.
As for `N#Cc1cncn1CC(O)(Cc1ccncc1Cl)C1(Cl)CC1` (centres unmarked) [Example I-57], the pest or weed control at 500 ppm was in the range of 90 to 100%.
Turning to `N#Cc1cncn1CC(O)(Cc1cc(Br)ncc1Br)C1(Cl)CC1` (centres unmarked) [Example I-47], the pest or weed control at 500 ppm is 90 to 100%.
As for `N#Cc1cncn1CC(O)(C(F)c1ccccc1Cl)C1(Cl)CC1` (centres unmarked) [Example I-24], the pest or weed control at 500 ppm lay within 90 to 100%.
Regarding `N#Cc1cncn1CC(O)(Cc1ccc(F)c(F)c1F)CC1CC1` (centres unmarked) [Example I-106], the pest or weed control at 500 ppm was 90 to 100%.
As for `OC(Cn1cncc1Cl)(C(F)c1ccccc1F)C1(Cl)CC1` (centres unmarked) [Example I-28], the pest or weed control at 500 ppm fell in the range of 70 to 79%.
`Cc1cncn1CC(O)(Cc1cccnc1Cl)C1(Cl)CC1` (centres unmarked) [Example I-10]: the pest or weed control at 500 ppm is 90 to 100%.
For the compound `OC(Cc1ccnc(Cl)c1Cl)(Cn1cncc1Cl)C1(Cl)CC1` (centres unmarked) [Example I-67], the pest or weed control at 500 ppm was in the range of 90 to 100%.
The same measure, in the same setting: the same measure for `Cc1ccc(CC(O)(Cn2cncc2Cl)C2(Cl)CC2)c(C)c1` (centres unmarked) [Example I-68]: 90 to 100%.
Still for that read-out and setting: the result for `CCOC(Cc1ccc(Cl)cc1F)(Cn1cncc1Cl)C1(Cl)CC1` (centres unmarked) [Example I-122] reads 90 to 100%.
As for `N#Cc1cncn1CC(O)(Cc1ccccc1F)CC1CC1` (centres unmarked) [Example I-141], the pest or weed control at 500 ppm was in the range of 90 to 100%.

These data come from US10231453B2, “5-substituted imidazole derivatives” (BAYER CROPSCIENCE AKTIENGESELLSCHAFT, priority 2015, dated 2019).
